Measurements as given in BindingDB's records for doi:10.1016/j.bmcl.2008.04.031 (The University of Tokyo, 2008).

Assay: Degradation promoting activity of FLAG tagged cIAP1 expressed in human HT1080 cells after 3 hrs by Western blotting analysis

| Compound | IC50 |
| --- | --- |
| CC(C)C[C@H](NC(=O)[C@@H](O)[C@H](N)Cc1ccccc1)C(=O)OCCNS(=O)(=O)c1cccc2c(N(C)C)cccc12 [(S)-2-(1-(dimethylamino)naphthalene-5-sulfonamido)ethyl 2-((2S,3R)-3-amino-2-hydroxy-4-phenylbutanamido)-4-methylpentanoate] | 1860 nM |
| COC(=O)[C@H](CC(C)C)NC(=O)[C@@H](O)[C@H](N)Cc1ccccc1 [(S)-methyl 2-((2S,3R)-3-amino-2-hydroxy-4-phenylbutanamido)-4-methylpentanoate] | 690 nM |
